Laboratory results: paper PMC4756062 (Clinical Pharmacokinetics, 2015)
“Also recorded” adds a separate entry of the source. Like-named read-outs stand apart in the source and are kept apart here.

Assays:
[1] = type: in vivo, human (breast cancer patients); conditions: for AUC(0-t): AUC0–24, plasma; for C trough: concentration before dosing; for C trough / C trough, ratio of weak to potent CYP2D6-inhibiting SSRI: 10 patients
[2] = Adverse effects recorded during the antidepressant switch study; type: in vivo, human (breast cancer patients)
[3] = after versus before the switch, median (range)
[4] = female, human, plasma, tamoxifen + potent CYP2D6-inhibiting SSRI (paroxetine or fluoxetine), median (range), dose corrected to 20 mg tamoxifen
[5] = female, human, plasma, C max, plasma, tamoxifen + potent CYP2D6-inhibiting SSRI (paroxetine or fluoxetine), median (range), dose corrected to 20 mg tamoxifen
[6] = plasma, tamoxifen + potent CYP2D6-inhibiting SSRI (paroxetine or fluoxetine), median (range)
[7] = plasma, after versus before the switch, median (range)
[8] = plasma, switch from paroxetine/fluoxetine to escitalopram
[9] = tamoxifen + potent CYP2D6-inhibiting SSRI (paroxetine or fluoxetine), median (range)
[10] = plasma, tamoxifen + potent CYP2D6-inhibiting SSRI (paroxetine or fluoxetine), median (range), dose corrected to 20 mg tamoxifen

Row | Structure (SMILES) | AUC(0-t) [1, 4] [µM·h] | Cmax [1, 5] [nM] | C trough [1, 6] | AUC0–24, ratio of weak to potent CYP2D6-inhibiting SSRI [1, 7] | C max, ratio of weak to potent CYP2D6-inhibiting SSRI [1, 7] | C trough, ratio of weak to potent CYP2D6-inhibiting SSRI [1, 7] | other results
1 | CC/C(=C(\c1ccc(O)cc1)c1ccc(OCCN(C)C)cc1)c1ccccc1 [4-OH-Tam, 4-hydroxytamoxifen] | 0.0638 | 3.46 | 2.47 (1.29–4.65) nM | 1.34 (0.88–1.87) | 1.42 (0.81–2.05) | 1.40 (0.82–2.06) | AUC0–24 ratio 4-OH-Tam to tamoxifen, ratio of weak to potent CYP2D6-inhibiting SSRI [1, 3]: 1.51 (1.08–1.67); AUC0–24 ratio 4-OH-Tam to tamoxifen, ratio of weak to potent CYP2D6-inhibiting SSRI ([1]; after versus before the switch, median (range), listed as 4-hydroxytamoxifen): ~ 1.5; Increase in AUC0–24 after the switch [1, 8]: 34%; Increase in Cmax after the switch [1, 8]: 42%; Increase in Ctrough after the switch [1, 8]: 40%; AUC0–24 ratio 4-OH-Tam to tamoxifen [1, 9]: 0.0109 (0.0053–0.014)
2 | CC/C(=C(\c1ccc(O)cc1)c1ccc(OCCNC)cc1)c1ccccc1 [Endoxifen, 4-hydroxy-N-desmethyl-tamoxifen] | 0.0992 | 5.46 | 5.20 (3.48–10.6) nM | – | 2.96 (1.50–7.44) | 2.80 (1.02–6.33) | AUC0–24 ratio endoxifen to ND-Tam, ratio of weak to potent CYP2D6-inhibiting SSRI [1, 3]: 3.33 (1.56–5.37); Fold higher endoxifen exposure after the switch, single patient ([1]; one person using 40 mg tamoxifen (dose corrected to 20 mg)): 2.9 fold; C max, ratio of weak to potent CYP2D6-inhibiting SSRI ([1]; plasma, after versus before the switch, median (range), listed as endoxifen): ~ 3; AUC0–24 ratio endoxifen to ND-Tam [1, 9]: 0.0113 (0.0065–0.014); AUC0–24 ratio endoxifen to tamoxifen [1, 9]: 0.0213 (0.0057–0.029)
3 | CC/C(=C(\c1ccccc1)c1ccc(OCCNC)cc1)c1ccccc1 [ND-Tam, N-desmethyltamoxifen] | – | – | 446 (306–807) nM | 1.09 (0.75–1.27) | 1.09 (0.77–1.75) | 0.97 (0.76–1.37) | AUC0–24 [1, 10]: 10,149 (7744–20,107) nM·h; Cmax [1, 10]: 528 nM
4 | CC/C(=C(\c1ccccc1)c1ccc(OCCN(C)C)cc1)c1ccccc1 [Tamoxifen, reference compound] | 6.42 | 369 | 278 (128–557) nM | – | – | – | –
5 | CN(C)CCC[C@@]1(c2ccc(F)cc2)OCc2cc(C#N)ccc21 [escitalopram, S-citalopram] | – | – | – | – | – | – | Hot flashes ([2]; tamoxifen-treated women, during co-administration): hot flashes were reported particularly during escitalopram co-administration; Safety of switching from paroxetine/fluoxetine to escitalopram (antidepressant-related adverse events, psychiatric relapse) ([2]; tamoxifen-treated women, escitalopram 10–20 mg/day, cross-tapering): safe and feasible; also recorded: No antidepressant-related adverse events or psychiatric relapse were noted; Discontinuation of treatment ([2]; ten tamoxifen-treated women): None of the ten women had to discontinue
